Measured values: patent US8877775B2, “Substituted 2-aza-bicyclo[2.2.2]octane-3-carboxylic acid (benzyl-cyano-methyl)-amides inhibitors of cathepsin C” (Boehringer Ingelheim International GmbH, priority 2013, dated 2014)

Columns and labels:
[1] = target: recombinant human DPPI (Cathepsin C) (Homo sapiens (Human), UniProt P53634); test: Inhibition of human DPPI (Cathepsin C); format: biochemical; settings: substrate Gly-Arg-AMC 50 μM, 30 min, room temperature
From the text: Inhibition of Human DPPI (Cathepsin C)
Materials: Microtiterplates (Optiplate-384 F) were purchased from PerkinElmer (Prod. No. 6007270). The substrate Gly-Arg-AMC was from Biotrend (Prod.-No. 808756 Custom peptide). Bovine serum albumin (BSA; Prod. No. A3059) and Dithiothreitol (DTT; Prod. No D0632) were from Sigma. TagZyme buffer was from Riedel-de-Haen (Prod.-No. 04269), NaCl was from Merck (Prod.-No. 1.06404.1000) and morpholinoethane sulfonic acid (MES), was from Serva (Prod.-No. 29834). The DPP1 inhibitor Gly-Phe-DMK was purchased from MP Biomedicals (Prod.-No. 03DK00625). The recombinant human DPPI was purchased from Prozymex. All other materials were of highest grade commercially available.
The following buffers were used: MES buffer: 25 mM MES, 50 mM NaCl, 5 mM DTT, adjusted to pH 6.0, containing 0.1% BSA; TAGZyme Buffer: 20 mM NaH2PO4, 150 mM NaCl adjusted to pH 6.0 with HCl
The recombinant human DPPI was diluted in TAGZyme buffer to 1 U/ml (38.1 μg/ml, respectively), and then activated by mixing in a 1:2 ratio with a Cysteamine aqueous solution (2 mM) and incubating for 5 min at room temperature.
Five uL test compound (final concentration 0.1 nM to 100 μM) in aqua bidest (containing 4% DMSO, final DMSO concentration 1%) were mixed with 10 μL of DPPI in MES buffer (final concentration 0.0125 ng/μL) and incubated for 10 min. Then, 5 μL of substrate in MES buffer (final concentration 50 μM) were added. The microtiter plates were then incubated at room temperature for 30 min. Then, the reaction was stopped by adding 10 μL of Gly-Phe-DMK in MES-buffer (final concentration 1 μM). The fluorescence in the wells was determined using a Molecular Devices SpectraMax M5 Fluorescence Reader (Ex 360 nm, Em 460 nm) or an Envision Fluorescence Reader (Ex 355 nm, Em 460 nm).
The analysis of the data was performed by calculating the percentage of fluorescence in the presence of test compound in comparison to the fluorescence of the vehicle control after subtracting the background fluorescence using the following formula: (RFU(sample)−RFU(background))*100/(RFU(control)−RFU(background))
Data from these calculations were used to generate IC50 values for inhibition of DPPI, respectively.

[2] = target: recombinant human Cathepsin K (Homo sapiens (Human), UniProt P43235); test: Inhibition of human Cathepsin K; format: biochemical; settings: substrate Z-Gly-Pro-Arg-AMC 12.5 μM, 60 min, room temperature
From the text: Inhibition of Human Cathepsin K
Materials: Microtiterplates (Optiplate-384 F were purchased from PerkinElmer (Prod. No. 6007270). The substrate Z-Gly-Pro-Arg-AMC was from Biomol (Prod.-No. P-142). L-Cysteine (Prod. No. 168149) was from Sigma. Sodium actetate was from Merck (Prod.-No. 6268.0250), EDTA was from Fluka (Prod.-No. 03680). The inhibitor E-64 was purchased from Sigma (Prod.-No. E3132). The recombinant human Cathepsin K proenzyme was purchased from Biomol (Prod. No. SE-367). All other materials were of highest grade commercially available.
The following buffers were used: Activation buffer: 32.5 mM sodium acetate, adjusted to pH 3.5 with HCl; Assay buffer: 150 mM sodium acetate, 4 mM EDTA, 20 mM L-Cysteine, adjusted to pH 5.5 with HCl,
To activate the proenzyme, 5 μl procathepsin K were mixed with 1 ul activation buffer, and incubated at room temperature for 30 min.
5 μL test compound (final concentration 0.1 nM to 100 μM) in aqua bidest (containing 4% DMSO, final DMSO concentration 1%) were mixed with 10 uL of Cathepsin K in assay buffer (final concentration 2 ng/μL) and incubated for 10 min. Then 5 μL of substrate in assay buffer (final concentration 12.5 μM) were added. The plates were then incubated at room temperature for is 60 min. Then, the reaction was stopped by adding 10 μL of E64 in assay buffer (final concentration 1 μM). The fluorescence in the wells was determined using a Molecular Devices SpectraMax M5 Fluorescence Reader (Ex 360 nm, Em 460 nm).
Each assay microtiter plate contains wells with vehicle controls (1% DMSO in bidest) as reference for non-inhibited enzyme activity (100% Ctl; high values) and wells with inhibitor (E64 in bidest+1% DMSO, final concentration 1 μM) as controls for background fluorescence (0% Ctl; low values). The analysis of the data was performed by calculating the percentage of fluorescence in the presence of test compound in comparison to the fluorescence of the vehicle control after subtracting the background fluorescence: (RFU(sample)−RFU(background))*100/(RFU(control)−RFU(background))
Data from these calculations were used to generate IC50 values for inhibition of Cathepsin K, respectively.

[3] = Metabolic stability with human liver microsomes; format: in vitro ADME; settings: pH 7.6; pooled human liver microsomes, 37° C., 1 μM test compound, 1 mg/ml protein, NADPH; read-out: In vitro stability in human liver microsome incubations t1/2
Description: Determination of Metabolic Stability with Human Liver Microsomes
The metabolic degradation of the test compound is assayed at 37° C. with pooled human liver microsomes. The final incubation volume of 100 μl per time point contains TRIS buffer pH 7.6 (0.1 M), magnesium chloride (5 mM), microsomal protein (1 mg/ml) and the test compound at a final concentration of 1 μM. Following a short preincubation period at 37° C., the reactions are initiated by addition of beta-nicotinamide adenine dinucleotide phosphate, reduced form (NADPH, 1 mM) and terminated by transfering an aliquot into acetonitrile after different time points. Additionally, the NADPH-independent degradation is monitored in incubations without NADPH, terminated at the last time point. The [%] remaining test compound after NADPH independent incubation is reflected by the parameter c(control) (metabolic stability). The quenched incubations are pelleted by centrifugation (10′000 g, 5 min). An aliquot of the supernatant is assayed by LC-MS/MS for the amount of parent compound.
The half-life (t1/2 INVITRO) is determined by the slope of the semilogarithmic plot of the concentration-time profile. The intrinsic clearance (CL_[…]) is calculated by considering the amount of protein in the incubation: CL_[…][μl/min/mg protein]=(In 2/(half-life[min]*protein content[mg/ml]))*1′000. The half-life (t1/2 INVITRO) values of selected compounds in the metabolic stability assay described above are listed in the following table

[4] = system: Neutrophil elastase activity in U937 cells; test: Neutrophil elastase activity in U937 cytosolic lysate after incubation with test compound; format: cell-based; settings: Homo sapiens, U-937; U937 cells incubated 48 hours with compound; NE activity in lysate; read-out: Reduction of NE-activity in U937 cells IC50
Description: Determination of Neutrophil Elastase Activity in U937 Cytosolic Lysate Preparation after Incubation with Test Compound Materials: Optiplate 384F were purchased from PerkinElmer (Prod. No. #6007270). 24 well Nunclon cell culture plates (No. 142475) and 96 well plates (No. 267245) were from Nunc. Dimethylsulfoxid (DMSO) was from Sigma (Prod. No. D8418). Nonidet-P40 (NP40) was from USBiological (Prod. No. N3500) Substrate, specific for Neutrophil elastase, was from Bachem (MeOSuc-Ala-Ala-Pro-Val-AMC; Prod. No. I-1270). Human neutrophil elastase was from Calbiochem (Prod. No. 324681) Buffers: Tris-buffer (100 mM Tris; 1M NaCL; pH 7.5) Tris-buffer+HSA 0.1%; Human Serum Albumin from Calbiochem (Cat#. 126658) Serine-protease buffer (20 mM Tris; 100 mM NaCL; pH 7.5)+0.1% HSA Serine protease lysis buffer: 20 mM Tris-HCL; 100 mM NaCl pH 7.5; +0.2% Nonidet-P40; PBS: phosphate buffered saline, without Ca and Mg, from Gibco Cell Culture: U937 from ECACC (Cat. No. 85011440) cultured in suspension at 37° C. and 5% CO2. Cell density: 0.2-1 Mio. Cells/ml. Medium: RPMI1640 GlutaMAX (No. 61870) with 10% FCS from Gibco Cell Seeding and Treatment: Compounds in 100% DMSO were diluted in Medium (—FCS) with 10% DMSO and further diluted according to the experiment planned. 20 μl of the compound solution was transferred in the respective wells of the 24 well plate and diluted with 2 ml cell suspension/well containing 1′10^5 cells/ml (final concentration of DMSO=0.1%). Compound dilution factor=100 Compounds (up to 7 concentrations) were tested in triplicates with 3 wells for the DMSO 0.1% control, incubated for 48 hours without medium change at 37° C., 5% CO2 and 95% relative to humidity. Cell Harvesting and Cell Lysate:
Transfer the cell suspension in 2.2 ml Eppendorf cups. Separate cells from medium by centrifugation (400×g; 5 min; RT); discard the supernatant. Resuspend in 1 ml PBS; centrifugation (400×g; 5 min; RT); wash cells twice with PBS. Add 100 μl Serin lysis buffer (ice cold) to the cell pellet; resuspend the pellet and store on ice for 15 minutes. Remove debris by centrifugation at 15000×g for 10 min at 4° C. Transfer 80-100 μl lysate supernatant in 96 well plate and store immediately at −80° C.
Neutrophil Elastase Activity Assay:
Frozen lysates were thawn at 37° C. for 10 minutes and stored on ice. Protein content was determined with Bradford protein assay. Lysates were diluted to 0.2-0.5 mg/ml protein in serine protease buffer+HSA.
Standard: NE (100 μg/ml stocksolution in Tris-buffer; stored at −80° C.) was diluted in Tris-buffer+HSA to 750 ng/ml, and further serially diluted 1:2 for the standard curve.
Buffer, blank, standard and lysate samples were transferred into 384 well plate
The increase in fluorescence (Ex360 nm/Em 460 nm) is determined over 30 minutes with a Molecular Device Spectramax M5 Fluorescence Reader. Kinetic Reduction (Vmax units/sec); 4 vmax points. The amount of neutrophil elastase (ng/ml) is calculated using the standard curve and the Spectramax software. The result is interpolated to ng/mg lysate protein using excel formula functions. […] IC50 is calculated using Graphpad Prism; nonlinear fitting (log(inhibitor) vs. response—Variable slope). The IC50 value is interpolated as the concentration of test compound which leads to a neutrophil elastase activity reduction of 50% (relative to the DMSO-treated control).

Sequence of recombinant human Cathepsin K (P43235 115-329): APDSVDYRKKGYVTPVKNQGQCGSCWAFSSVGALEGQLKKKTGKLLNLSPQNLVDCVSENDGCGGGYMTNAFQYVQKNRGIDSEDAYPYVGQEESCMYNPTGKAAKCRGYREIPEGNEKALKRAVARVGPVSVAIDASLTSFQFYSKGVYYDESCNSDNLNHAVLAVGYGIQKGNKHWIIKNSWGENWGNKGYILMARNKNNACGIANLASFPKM
Sequence of recombinant human DPPI (Cathepsin C) (P53634 231-394): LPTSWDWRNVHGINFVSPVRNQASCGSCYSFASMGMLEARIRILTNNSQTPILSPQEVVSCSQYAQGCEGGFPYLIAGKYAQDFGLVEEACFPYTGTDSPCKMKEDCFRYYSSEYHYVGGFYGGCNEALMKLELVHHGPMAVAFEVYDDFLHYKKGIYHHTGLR
Sequence of recombinant human DPPI (Cathepsin C) (P53634 395-463): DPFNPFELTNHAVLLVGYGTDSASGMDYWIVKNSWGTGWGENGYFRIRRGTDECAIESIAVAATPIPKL
Sequence of recombinant human DPPI (Cathepsin C) (P53634 25-134): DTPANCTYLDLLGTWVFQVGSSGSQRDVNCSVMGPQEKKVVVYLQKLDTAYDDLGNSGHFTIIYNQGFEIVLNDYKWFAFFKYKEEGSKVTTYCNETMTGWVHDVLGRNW

`CN1Cc2cc(-c3ccc(C[C@@H](C#N)NC(=O)[C@H]4NC5CCC4CC5)c(F)c3)ccc2S1(=O)=O` [Example 27] gave an IC50 [1] of 73.3 nM.
Work on `N#Cc1ccc(-c2ccc(C[C@@H](C#N)NC(=O)[C@H]3NC4CCC3CC4)cc2)cc1` [Example 9] yielded an IC50 [1] of 73 nM, an IC50 [2] of 14800 nM and a half-life at 1 μM [3] greater than 2.17 h.
Work on `N#C[C@H](Cc1ccc(-c2cc(F)c(F)c(F)c2)cc1)NC(=O)[C@H]1NC2CCC1CC2` [Example 23] yielded an IC50 [1] of 244 nM.
`CS(=O)(=O)c1ccc(-c2ccc(C[C@@H](C#N)NC(=O)[C@H]3NC4CCC3CC4)cc2)cc1` [Example 15] gave an IC50 [1] of 110 nM.
Work on `N#C[C@H](Cc1ccc(-c2ccc3c(c2)CC(=O)N3)cc1)NC(=O)[C@H]1NC2CCC1CC2` [Example 14] yielded an IC50 [1] of 103 nM.
Compound `CS(=O)(=O)c1cc(-c2ccc(C[C@@H](C#N)NC(=O)[C@H]3NC4CCC3CC4)c(F)c2)ccc1C#N` [Example 1, (2S)—N-[(1S)-1-cyano-2-[4-(4-cyano-3-methylsulfonyl-phenyl)-2-fluoro-phenyl]ethyl]-3-azabicyclo[2.2.2]octane-2-carboxamide] has an IC50 [2] of 2700 nM, an IC50 [4] of 134 nM and a half-life at 1 μM [3] of 2 h.
For `N#C[C@H](Cc1ccc(-c2cccc(C(N)=O)c2)cc1)NC(=O)[C@H]1NC2CCC1CC2` [Example 18], the IC50 [1] was 131 nM and the IC50 [2] was 9700 nM.
`CS(=O)(=O)Nc1ccc(-c2ccc(C[C@@H](C#N)NC(=O)[C@H]3NC4CCC3CC4)cc2)cc1` [Example 17] showed an IC50 [1] of 124 nM and an IC50 [2] of 6700 nM.
With `CN1C(=O)Cc2ccc(-c3ccc(C[C@@H](C#N)NC(=O)[C@H]4NC5CCC4CC5)cc3)cc21` [Example 6] the IC50 [1] was 52.2 nM.
With `N#C[C@H](Cc1ccc(-c2ccc3c(c2)CCNC3=O)cc1)NC(=O)[C@H]1NC2CCC1CC2` [Example 20] the IC50 [1] was 137 nM.
`N#C[C@H](Cc1ccc(-c2ccc(S(N)(=O)=O)cc2)cc1)NC(=O)[C@H]1NC2CCC1CC2` [Example 13] gave an IC50 [1] of 102 nM and an IC50 [2] of 10800 nM.
With `N#C[C@H](Cc1ccc(-c2ccc(C(N)=O)cc2)cc1)NC(=O)[C@H]1NC2CCC1CC2` [Example 16] the IC50 [1] was 118 nM.
Work on `COCCN1C(=O)Cc2ccc(-c3ccc(C[C@@H](C#N)NC(=O)[C@H]4NC5CCC4CC5)cc3)cc21` [Example 21] yielded an IC50 [1] of 160 nM.
In the case of `CS(=O)(=O)c1ccc(-c2ccc(C[C@@H](C#N)NC(=O)C3NC4CCC3CC4)c(F)c2)cc1C#N` (stereo partly drawn) [Example 26], the IC50 [1] is reported as 27.8 nM.
With `CCS(=O)(=O)c1ccc(-c2ccc(C[C@@H](C#N)NC(=O)[C@H]3NC4CCC3CC4)cc2)cc1` [Example 22] the IC50 [1] was 164 nM.
In the case of `CN1Cc2ccc(-c3ccc(C[C@@H](C#N)NC(=O)[C@H]4NC5CCC4CC5)c(F)c3)cc2C1` [Example 25], the IC50 [1] is reported as 98 nM.
Compound `N#Cc1cc(-c2ccc(C[C@@H](C#N)NC(=O)[C@H]3NC4CCC3CC4)cc2)ccn1` [Example 24] has an IC50 [1] of 248 nM.
